Source: patent US8487098B2, “Synergistic combination of flumetsulam or diclosulam with isothiazolones” (Dow Global Technologies LLC, priority 2010, dated 2013)

Columns and labels:
Format in all cases: cell-based
Conditions in all cases: 4 weeks; for % inhibition: at the total conc given; for Total conc, ppm: minimum inhibitory concentration in paint
[1] = test system: Trentepohlia aurea, Tretepohlia odorata, and Calotrix parientina (Cp + To + Ta); experiment: Algal efficacy testing, modified ASTM 5589, paint film
Experimental: (§1) A single or blend of biocides was post added into white acrylic latex paint free of biocides to give a maximum total active ingredient/s concentration tested. This paint was then diluted with a biocide free acrylic latex paint to give targeted concentrations for the testing. Depending on the type of biocide blends tested, the total biocides concentrations varies from 200 to 5000 ppm. After biocides addition or dilution, each sample was hand mixed for at least a minute until uniformity is achieved. Each of the paint samples as well as a control sample (containing no biocide) were used to prepare films on black plastic-vinyl chloride/acetate copolymer panels (LENETA, Mahwah, N.J.) using a 3 mil (0.0762 mm) bird bar applicator. The panels were thoroughly dried for at least 2 days avoiding direct exposure to sunlight. Square discs (0.5 inch; 1.27 cm^2) were cut out from each panel and were used as the substrate for fungal and algal efficacy tests. This sample size allowed for an agar border when the sample disc was placed into the well of the test plate. Each sample was tested in duplicate
(§2) The appropriate media (BOLD'S 3N for Chlorophytes, BG-11 for Cyanobacteria, and PDA for fungi) were used to support microbial growth. The test plates were maintained at room temp (25° C.-26° C.), in a cycled light-dark environment, for four weeks for algae. Plates for fungal challenge tests were maintained at 30 C for four weeks. At the end of the incubation period the samples were scored for percent area covered by visible microbial growth.
(§3) Algal Efficacy Testing—Modified ASTM 5589
(§4) ASTM 5589 is a standard accelerated test method for determining resistance of various coatings (including paints) to algal defacement. To accommodate for high-throughput screening, this method was scaled down from petri plates to 6-well plates. A single coupon was placed with a pair of sterile forceps at the center of the agar plug (on top) with the painted surface facing upwards. Algal inoculums were prepared by mixing equal concentrations (1×10^6 cfu/ml) and equal volumes (depending on number of samples to be inoculated) of like growing organisms.
(§5) In Flumetsulam+various IT synergy study, three pool of mixed algae were prepared as the test inoculum, Gloeocapsa sp. and Oscillatoria sp. a mix of cyanobacteria grown on BG-11 media; Chlorella sp., Chlorella kessleri, and Nostoc commune are unicellular chlorphytes that were mixed and grown on Bold media; Trentepohlia aurea, Tretepohlia odorata, and Calotrix parientina are filamentous algae that were mixed and grown on Bold media.
(§6) Each well that contains a tested coupon was inoculated with 400 μl of organism mixture (1×10^6 cfu/ml) making sure that the whole surface (paint film as well as the agar surrounding it) was evenly covered. The plates were incubated at room temp (25° C.-26° C.) with cyclic exposure to light (OTT-Lite model #OTL4012P, 40 Watt, 26 KLumen) and dark phases, for a period of four weeks. The total area covered was evaluated at the end of each week according to percent area covered in 5% increments.
(§7) Synergy Index Calculation
(§8) The SI is calculated based on F. C. Kull et.
(§9) Qa=the concentration of Biocide A in the blend
(§10) QA=The concentration of Biocide A as the only biocide
(§11) Qb=The concentration of Biocide B in the blend
(§12) QB=The concentration of Biocide B as the only biocide
(§13) SI value of <1 in the formula indicates a synergism of the blended biocides exists.
(§14) NE=no end point at the concentration tested that will meet the percent inhibition criteria set in each SI calculation

[2] = test system: Chlorella sp., Chlorella kessleri, and Nostoc commune (Cs + Ck + Nc); experiment: as above
Experimental: as §1, §2, §3, §4, §5, §6, §7, §8, §9, §10, §11, §12, §13, §14

[3] = test system: Aspergillus niger mixed with Penicillium funiculosum (AnPf); experiment: Fungal efficacy testing, modified ASTM 5590, paint film
Experimental: as §1, §2
(§15) Fungal Efficacy Testing—Modified ASTM 5590
(§16) ASTM 5590 is a standard accelerated test method for determining resistance of various coatings (including paints) to fungal defacement. To accommodate for high-throughput screening, this method was scaled down from petri plates to 6-well plates. To set up the test, an agar plug was placed at the bottom of each well of the sterile 6-well plate. A single coupon was placed with a pair of sterile forceps at the center of the agar plug (on top) with the painted surface facing upwards. Fungal inoculums were prepared by mixing equal concentrations (1×10^6 cfu/ml) and equal volumes (depending on number of samples to be tested) of like growing organisms. For Flumetsulam+various IT synergy study, three pools of mixed fungi were prepared as the test inoculum. Cladosporium herbarum was mixed with Aureobasidium pullulans; Aspergillus niger was mixed with Penicillium funiculosum and Alternaria alternata was mixed with Trichoderma viride. For Diclosulam+various IT synergy study, all above fungi were mixed as a single pool. Each well was inoculated with 400 μl of organism mixture (1×10^6 cfu/ml) making sure that the whole surface (paint film as well as the agar surrounding it) was evenly covered. The plates were incubated at 30° C. in presence of moisture, for a period of four weeks. The total percent area covered was evaluated and recorded at the end of each week after the 2nd week and recorded in increments of 5%.
as §7, §8, §9, §10, §11, §12, §13, §14

[4] = test system: Cladosporium herbarum mixed with Aureobasidium pullulans (ApCh); experiment: as above
Experimental: as §1, §2, §15, §16, §7, §8, §9, §10, §11, §12, §13, §14

[5] = test system: Alternaria alternata mixed with Trichoderma viride (AaTv); experiment: as above
Experimental: as §1, §2, §15, §16, §7, §8, §9, §10, §11, §12, §13, §14

[6] = test system: Gloeocapsa sp. and Oscillatoria sp. (Gs + Os); experiment: Algal efficacy testing, modified ASTM 5589, paint film
Experimental: as §1, §2, §3, §4, §5
(§17) In Diclosulam+various IT synergy study, only two pools of mixed algae were prepared; Gloeocapsa sp. and Oscillatoria sp. grown on BG-11 media and Chlorella sp., Chlorella kessleri, Nostoc commune, Trentepohlia aurea, Tretepohlia odorata, and Calotrix parientina grown on Bold media
as §6, §7, §8, §9, §10, §11, §12, §13, §14

[7] = test system: Aa + Tv + An + Pf + Ap + Ch; experiment: Fungal efficacy testing, modified ASTM 5590, paint film, single pool of all fungi
Experimental: as §1, §2, §15, §16, §7, §8, §9, §10, §11, §12, §13, §14

[8] = test system: Cp + To + Ta + Cs + Ck + Nc; experiment: Algal efficacy testing, modified ASTM 5589, paint film, pool grown on Bold media
Experimental: as §1, §2, §3, §4, §17, §6, §7, §8, §9, §10, §11, §12, §13, §14

[9] = Flumetsulam:BBIT synergy study, NE=no end point
[10] = Synergy study of Diclosulam and DCOIT
[11] = Flumetsulam:DCOIT synergy study
[12] = Synergy study of Diclosulam+OIT

Structure (SMILES): CCCCn1sc2ccccc2c1=O [BBIT, N-n-butyl-1,2-benzisothiazolin-3-one]
- % inhibition ([1]; Flumetsulam:BBIT synergy study): 0%
- Total conc, ppm [1, 9]: 1150 ppm
- % inhibition ([2]; Flumetsulam:BBIT synergy study): 0%
- Total conc, ppm ([2]; Flumetsulam:BBIT synergy study): 1150 ppm
- % inhibition ([3]; Flumetsulam:BBIT synergy study): 0%
- Total conc, ppm ([3]; Flumetsulam:BBIT synergy study): 1150 ppm
- % inhibition ([4]; Flumetsulam:BBIT synergy study): 80%
- Total conc, ppm [4, 9]: 575 ppm
- % inhibition ([5]; Flumetsulam:BBIT synergy study): 0%
- Total conc, ppm [5, 9]: 1150 ppm
- % inhibition ([6]; Flumetsulam:BBIT synergy study): 0%
- Total conc, ppm ([6]; Flumetsulam:BBIT synergy study): 1150 ppm

Structure (SMILES): CCCCCCCCn1sc(Cl)c(Cl)c1=O [DCOIT, 4,5-dichloro-2-n-octyl-4-isothiazolin-3-one]
- % inhibition [7, 10]: 80%
- Total conc, ppm [7, 10]: 625 ppm
- % inhibition [1, 11]: 100%
- Total conc, ppm [1, 11]: 143.75 ppm
- % inhibition [2, 11]: 100%
- Total conc, ppm [2, 11]: 1150 ppm
- % inhibition [3, 11]: 100%
- Total conc, ppm [3, 11]: 575 ppm
- % inhibition [4, 11]: 100%
- Total conc, ppm [4, 11]: 862.5 ppm
- % inhibition [5, 11]: 85%
- Total conc, ppm [5, 11]: 575 ppm
- % inhibition [8, 10]: 100%
- Total conc, ppm [8, 10]: 625 ppm
- % inhibition [6, 11]: 100%
- Total conc, ppm [6, 11]: 143.75 ppm
- % inhibition [6, 10]: 100%
- Total conc, ppm [6, 10]: 625 ppm

Structure (SMILES): CCOc1nc(F)cc2nc(S(=O)(=O)Nc3c(Cl)cccc3Cl)nn12 [Diclosulam, N-(2,6-dichlorophenyl)-5-ethoxy-7-fluoro[1,2,4]triazolo[1,5-c]pyrimidine-2-sulfonamide]
- % inhibition [7, 10]: 40%
- Total conc, ppm [7, 10]: 3500 ppm
- % inhibition [7, 12]: 0%
- Total conc, ppm [7, 12]: 3500 ppm
- % inhibition [8, 10]: 100%
- Total conc, ppm [8, 10]: 437.5 ppm
- % inhibition [8, 12]: 100%
- Total conc, ppm [8, 12]: 437.5 ppm
- % inhibition [6, 10]: 100%
- Total conc, ppm [6, 10]: 437.5 ppm
- % inhibition [6, 12]: 100%
- Total conc, ppm [6, 12]: 437.5 ppm

Structure (SMILES): Cc1ccn2nc(S(=O)(=O)Nc3c(F)cccc3F)nc2n1 [Flumetsulam, N-(2,6-difluorophenyl)-5-methyl[1,2,4]triazolo[1,5-a]pyrimidine-2-sulfonamide]
- % inhibition ([1]; Flumetsulam:BBIT synergy study): 0%
- Total conc, ppm [1, 9]: 3500 ppm
- % inhibition [1, 11]: 95%
- Total conc, ppm [1, 11]: 437.5 ppm
- % inhibition ([1]; Flumetsulam:OIT synergy study): 60%
- Total conc, ppm ([1]; Flumetsulam:OIT synergy study): 437.5 ppm
- % inhibition ([2]; Flumetsulam:BBIT synergy study): 0%
- Total conc, ppm ([2]; Flumetsulam:BBIT synergy study): 3500 ppm
- % inhibition [2, 11]: 100%
- Total conc, ppm [2, 11]: 1750 ppm
- % inhibition ([2]; Flumetsulam:OIT synergy study): 65%
- Total conc, ppm ([2]; Flumetsulam:OIT synergy study): 2625 ppm
- % inhibition ([3]; Flumetsulam:BBIT synergy study): 0%
- Total conc, ppm ([3]; Flumetsulam:BBIT synergy study): 3500 ppm
- % inhibition [3, 11]: 0%
- Total conc, ppm [3, 11]: 3500 ppm
- % inhibition ([3]; Flumetsulam:OIT synergy study): 65%
- Total conc, ppm ([3]; Flumetsulam:OIT synergy study): 3500 ppm
- % inhibition ([4]; Flumetsulam:BBIT synergy study): 0%
- Total conc, ppm [4, 9]: 3500 ppm
- % inhibition [4, 11]: 90%
- Total conc, ppm [4, 11]: 3500 ppm
- % inhibition ([4]; Flumetsulam:OIT synergy study): 0%
- Total conc, ppm ([4]; Flumetsulam:OIT synergy study): 3500 ppm
- % inhibition ([5]; Flumetsulam:BBIT synergy study): 0%
- Total conc, ppm [5, 9]: 3500 ppm
- % inhibition [5, 11]: 0%
- Total conc, ppm [5, 11]: 3500 ppm
- % inhibition ([5]; Flumetsulam:OIT synergy study): 0%
- Total conc, ppm ([5]; Flumetsulam:OIT synergy study): 3500 ppm
- % inhibition ([6]; Flumetsulam:BBIT synergy study): 0%
- Total conc, ppm ([6]; Flumetsulam:BBIT synergy study): 3500 ppm
- % inhibition [6, 11]: 100%
- Total conc, ppm [6, 11]: 2625 ppm
- % inhibition ([6]; Flumetsulam:OIT synergy study): 90%
- Total conc, ppm ([6]; Flumetsulam:OIT synergy study): 437.5 ppm

Structure (SMILES): CCCCCCCCn1sccc1=O [OIT, 2-n-octyl-4-isothiazolin-3-one]
- % inhibition [7, 12]: 100%
- Total conc, ppm [7, 12]: 450 ppm
- % inhibition ([1]; Flumetsulam:OIT synergy study): 100%
- Total conc, ppm ([1]; Flumetsulam:OIT synergy study): 450 ppm
- % inhibition ([2]; Flumetsulam:OIT synergy study): 100%
- Total conc, ppm ([2]; Flumetsulam:OIT synergy study): 450 ppm
- % inhibition ([3]; Flumetsulam:OIT synergy study): 100%
- Total conc, ppm ([3]; Flumetsulam:OIT synergy study): 450 ppm
- % inhibition ([4]; Flumetsulam:OIT synergy study): 80%
- Total conc, ppm ([4]; Flumetsulam:OIT synergy study): 900 ppm
- % inhibition ([5]; Flumetsulam:OIT synergy study): 100%
- Total conc, ppm ([5]; Flumetsulam:OIT synergy study): 900 ppm
- % inhibition [8, 12]: 100%
- Total conc, ppm [8, 12]: 900 ppm
- % inhibition ([6]; Flumetsulam:OIT synergy study): 100%
- Total conc, ppm ([6]; Flumetsulam:OIT synergy study): 450 ppm
- % inhibition [6, 12]: 100%
- Total conc, ppm [6, 12]: 900 ppm
